Measured values: US20080076772A1, “Anti-Inflammatory Agents” (Pharma Mar S.A. Sociedad Unipersonal, priority 2004, published 2008)

How the values were obtained:
TNF mRNA = assay: Real time-PCR of TNF transcripts in LPS-stimulated monocytes; type: cell-based, human
Description: (§1) To verify whether the inhibitory effect of ecteinascidin 743 on cytokine production was at the transcriptional level, we analyzed mRNA of CCL2 and TNF from LPS-stimulated macrophages by real time-PCR of CCL2 and TNF transcripts in LPS-stimulated monocytes exposed to ecteinascidin 743.

CCL2 = CCL2 production by LPS-stimulated monocytes (ELISA); type: cell-based, human
Experimental: Supernatants of untreated cells or cells treated with ecteinascidin 743 or other anti-neoplastic agents were collected after 24 h culture and frozen. Monocytes, macrophages and TAM were stimulated with 100 ng/ml LPS to induce maximal cytokine production. Determination of cytokines CCL2, TNF and IL-6 was measured by specific ELISA following the manufacturer's instructions.
Monocytes and in vitro differentiated macrophages were stimulated with LPS (100 ng/ml). After 1 h LPS stimulation they were treated with ecteinascidin 743. After 16 h incubation, cell supernatants were harvested and tested in ELISA. Under these treatment conditions cell viability was usually >85% for concentrations up to 5 nM. […] Mean inhibition at 5 nM, for monocytes, was 65% (range 50-80%, n=5) and was 50% (range 25-75%, n=5) for in vitro differentiated macrophages. Results are mean+/−SE of 3-5 experiments
Similar results were obtained when monocytes were stimulated with LPS (100 ng/ ml) and treated with ET743 and the other ecteinascidin compounds, although the overall inhibition was less marked compared with the previous experiment where the tumor supernantant was used as CCL2-inducing stimulus.
CCL2 and TNF production by LPS-stimulated monocytes treated with the indicated doses of the anti-tumor agents was also tested. Cell supernatants were harvested after 24 h-incubation and tested in ELISA. […] None of these compounds interfered with the production of TNF.
A major finding of our work is the inhibitory activity of ecteinascidin 743 on the production of inflammatory cytokines. Among various inflammatory cytokines produced by monocyte/macrophages we have tested IL-6, TNF and the chemokine CCL2. CCL2 is a chemokine attracting monocytes and other leukocyte subsets, and is produced both by monocyte/macrophages and several tumour cells. It has been described that ovarian adenocarcinoma cells produce huge amounts of CCL2 and that their levels correlate with the macrophage content of tumours. CCL2 is therefore one of the most important factors regulating monocyte/macrophages recruitment at the tumour site. […] Thus, lower levels of CCL2 by TAM and tumour cells are likely to reduce the number of macrophages recruited at the tumour site. In the above described in vitro experiments ecteinascidin 743 was present throughout the 16-h culture period. We also checked whether a shorter in vitro exposure to ecteinascidin 743 was sufficient to affect cytokine production. Monocytes exposed to ecteinascidin 743 were washed after 1 hour culture and replaced in fresh medium.

CCL2 transcripts = assay: Real time-PCR of CCL2 transcripts in LPS-stimulated monocytes; type: cell-based, human
Description: as §1

T lymphocytes = assay: Cell viability of purified T lymphocytes (PI staining, flow cytometry); type: cell-based, human; conditions: 48 h
Experimental: (§2) Purified populations of human blood monocytes were prepared as previously described by differential density centrifugation on Ficoll and Percoll gradients (see Allavena, P., Piemonti, L., Longoni, D., Bernasconi, S., Stoppacciaro, A., Ruco, L., and Mantovani, A. IL-10 prevents the differentiation of monocytes to dendritic cells but promotes their maturation to macrophages. Eur J Immunol, 28: 359-369, 1998). […] Human thymocytes were isolated from resected thymus from pediatric patients undergoing surgery. Thymocytes were obtained by teasing and isolated on Percoll gradient.
(§3) Cell viability was analyzed by DNA content in Flow Cytometry
(§4) Cells exposed to treatments were fixed with ethanol 70%, washed in PBS and stained with propidium iodide (PI) solution containing 10 ug/ml PI in PBS and 25 μl RNAse 10,000 units, overnight in the dark. PI incorporation was evaluated on at least 20,000 cells/sample using a FACS Calibur instrument (Becton Dickinson, Sunnyvale, Calif., USA), with a bandpass filter at 620 nm. Apoptosis was detected by staining with AnnexinV and PI. FACS analysis was performed using a bandpass filter 530 and 620 nm for green (AnnexinV) and red (PI) fluorescence respectively, in combination with a […] dichroic mirror.
Purified preparations of blood monocytes, lymphocytes and thymocytes were cultured with different concentrations of ecteinascidin 743 for 48 h. […]

blood monocytes = assay: in vitro
Experimental: as §2
(§5) Cells were cultured at 10^6 cells/ml in complete medium RPMI (Biochrom, Berlin, FRG)+10% FCS (Hyclone, Logan, Utah). In vitro differentiated macrophages were obtained by culture of monocytes Monocyte-Colony Stimulating Factor (M-CSF) Peprotech (20 ng/ml), for 5 days. In some experiments, macrophages were treated with LPS (100 ng/ml) Sigma Aldrich, IFN gamma (500 IU/ml) or IL-4 (20 ng/ml) (Schering Plough) for 24 h.
as §3, §4
(§6) Purified preparations of blood monocytes, lymphocytes and thymocytes were cultured with different concentrations of ecteinascidin 743 for 48 h. Cell viability was assessed by DNA analysis and propidium iodide (PI) staining in Flow cytometry.
(§7) A kinetics analysis of the cytotoxic effect of ecteinascidin 743 was performed in the presence of M-CSF. Cells were treated with M-CSF (20 ng/ml) and different concentrations of ecteinascidin 743. Samples were collected at the indicated times and tested for DNA analysis.
(§8) Viability was assessed by PI staining and analyzed by Flow Cytometry.

in vitro = conditions: human
Experimental: as §2, §5, §3, §4, §6, §7, §8

Question: Which results are given for `COc1cc2c(cc1O)CCN[C@]21CS[C@@H]2c3c(OC(C)=O)c(C)c4c(c3[C@H](COC1=O)N1[C@@H]2[C@H]2c3c(cc(C)c(OC)c3O)C[C@@H]([C@@H]1O)N2C)OCO4` [ecteinascidin 743]?
Answer: TNF mRNA (TNF mRNA): unaffected; inhibition at 0.005 µM (CCL2; Homo sapiens, Monocyte, 5 nM, LPS 100 ng/ml, 16 h, n=5): 65%; inhibition of CCL2 production (CCL2; monocytes washed after 1 hour culture with drug, fresh medium): 57%; inhibition of CCL2 production (CCL2; monocytes, 16 h-treatment): 69%; CCL2 transcripts (CCL2 transcripts): consistent reduction; viability of T lymphocytes (T lymphocytes; 5 nM): all alive; IC50 (T lymphocytes; Homo sapiens, T-lymphocyte): 20 nM; monocyte death (blood monocytes; 5 nM, 48 h incubation, with M-CSF): 30%; monocyte death (blood monocytes; 5 nM, 48 h incubation, without M-CSF): 55%; monocyte death (blood monocytes; 10 nM, 24 h treatment, with M-CSF): 35%; monocyte death (blood monocytes; 10 nM, 24 h treatment, without M-CSF): 65%; IC50 (blood monocytes; Homo sapiens, Monocyte, 48 h, read-out: lethal dose 50% (IC50), monocyte mortality): 2.5 to 5 nM; mortality at 0.0025 µM (blood monocytes; Homo sapiens, Monocyte, 120 h, read-out: mortality of monocytes): 40 to 50%; toxicity on monocytes (kinetics) (blood monocytes; higher concentrations, after 24 h incubation, M-CSF 20 ng/ml): significant toxicity; viability at 5 days, 0.0005 µM (in vitro): 92%; viability at 5 days, 0.001 µM (in vitro): 70%
